Test results taken from patent publication US6469052B2, “Compounds for the photodecontamination of pathogens in blood” (Cerus Corporation, priority 1993, dated 2002).
Where two headings read alike, the source gives them in different places.

What was measured:
[1] = system: Chinese hamster ovary (CHO) cells; assay: In vitro genotoxicity screen in CHO cells; assay type: cell-based; conditions: approximately 3 hours exposure in the dark, dilutions 1-1000 μg/ml
Text: The positive control was methylmethane sulfonate.
Coverslips were mounted with Permount.

R17 = R17 bacteriophage inactivation assay (r-17 screen); assay type: cell-based, bacteriophage R17 (grown in Hfr 3000 bacteria)
Experimental: An r-17 bacteriophage assay was used in this example to predict pathogen inactivation efficiency and to determine nucleic acid binding of the photoreactive binding compounds of the present invention. In the r-17 assay, the bacteriophage was placed in a solution with each compound tested and was then irradiated. The ability of the phage to subsequently infect bacteria and inhibit their growth was measured. The bacteriophage was selected for its relatively accessible nucleic acid such that the culture growth inhibition would accurately reflect nucleic acid damage by the test compounds. The bacteriophage assay for nucleic acid binding to test compounds offers a safe and inexpensive procedure to identify compounds likely to display efficient pathogen inactivation.
The R17 was grown up in Hfr 3000 bacteria, approximate titer 5 ×10^11. (R17 and Hfr 3000 were obtained from American Tissue Culture Collection (ATCC), Washington, D.C.) The R17 phage stock was added to a solution of 15% fetal bovine serum in Dulbecco's Modified Eagles Medium (DMEM) to a final phage concentration of 10^9/mL. An aliquot (0.5 mL) was transferred to a 1.5 mL snap-top polyethylene tube. An aliquot (0.004-0.040 mL) of the test compound stock solution prepared in water, ethanol or dimethylsulfoxide at 0.80-8.0 mM was added to the tube. Compounds were tested at concentrations between 4 μM and 320 μM. […] The tubes were placed in a light device as described in EXAMPLE 1 and irradiated for between 1 and 10 minutes. Sterile 13 mL dilution tubes were prepared; each test compound required one tube with 0.4 mL of Luria broth (LB) and five tubes containing 0.5 mL of LB broth. To make the dilutions, a 0.100 mL aliquot of the irradiated solution of phage and test compound was added to the first dilution tube of 0.4 mL of media then 0.020 mL of this solution was added to the second tube of 0.5 mL medium (1:25). The second solution was then diluted serially (1:25) into the remaining tubes. To each diluted sample was added 0.050 mL of Hfr 3000 bacteria cultured overnight and 3 mL of molten LB top agar and the mixed materials were poured onto LB broth plates. After the top agar hardened, the plates were incubated at 37° C. overnight. The plaque forming units were then counted the following morning and the titer of the phage remaining after phototreatment was calculated based on the dilution factors.
The following controls were run: the “phage only” in which phage was not treated with test compound and not irradiated (listed as “starting titer” in the tables below); the “UV only” in which the phage was irradiated in the absence of test compound; and the “dark” control in which the phage/test compound solution was not irradiated before it was diluted and plated.
Compounds of the present invention were also tested at a constant concentration for varying doses of UV light. Three sets of 1.5 mL tubes were prepared containing 0.6 mL aliquots of R17 in DMEM (prepared as described above). The compound tested was added at the desired concentration and the samples were vortexed. The samples were then irradiated at intervals of 1.0 J/cm^2, until 3.0 J/cm^2 was reached. Between each 1.0 J/cm^2 interval, 100 μL was removed from each sample and placed in the first corresponding dilution tube, then five sequential dilutions were performed for each compound tested, at all 3 irradiation doses, as described above in this example.
Then 50 μL of Hfr 3000 bacteria was added to each tube, 3 mL of top agar was added and the tube contents were vortexed. The contents of each tube was poured into its own LB plate and the plates were incubated overnight at 37° C. Plaques were counted by visual inspection the following morning.

[2] = system: Salmonella typhimurium TA100
Text: (§1) The second property that is important in testing a compound for use in methods of the present invention is mutagenicity. The most widely used mutagen/carcinogen screening assay is the Ames test. This assay is described by D. M. Maron and B. N. Ames in Mutation Research 113: 173 ( 1983) and a specific screen is described in detail in Example 17, below. The Ames test utilizes several unique strains of Salmonella typhimurium that are histidine- dependent for growth and that lack the usual DNA repair enzymes. The frequency of normal mutations that render the bacteria independent of histidine (i.e., the frequency of spontaneous revertants) is low. The test allows one to evaluate the impact of a compound on this revertant frequency.
(§2) In this example the compounds of the present invention are tested for their dark mutagenicity using an Ames assay. The procedures used for the Salmonella mutagenicity test as described in detail by Maron and Ames were followed exactly. Maron, D. M. and B. N. Ames, Mutation Research 113: 173 ( 1983). A brief description for each procedure is given here. The tester strains TA97a, TA98, TA100, TA102, TA1537 and TA1538 were obtained from Dr. Ames. TA97a, TA98, TA1537 and TA1538 are frameshift tester strains. TA100 and TA102 are base-substitution tester strains. Upon receipt each strain was cultured under a variety of conditions to confirm the genotypes specific to the strains.
(§3) The first tests done with the strains were to determine the range of spontaneous reversion for each of the strains. With each mutagenicity experiment the spontaneous reversion of the tester strains to histidine independence was measured and expressed as the number of spontaneous revertants per plate. This served as the background controls.
(§4) For all experiments, the pre-incubation procedure was used. In this procedure one vial of each tester strain was thawed and 20 μL of this culture was added to 6 mL of Oxoid Nutrient Broth #2. This solution was allowed to shake for 10 hours at 37° C. In the pre-incubation procedure, 0.1 mL of this overnight culture was added to each of the required number of sterile test tubes. To half of the tubes 0.5 mL of a 10% S-9 solution containing Aroclor 1254 induced rat liver extract (Molecular Toxicology Inc., Annapolis, Md.), and MgCl2, KCl, glucose-6-phosphate, NADP, and sodium phosphate buffer (Sigma, St. Louis, Mo.) were added. To the other half of the tubes 0.5 mL of 0.2M sodium phospate buffer, pH 7.4, was used in place of the S-9 mixture (the -S9 samples). Finally 0.1 mL of the test solution containing either 0, 0.1, 0.5, 1, 5, 10, 50, 100, 250, or 500 μg/mL of the test compound was added. The 0.7 mL mixture was vortexed and then pre-incubated while shaking for 20 minutes at 37° C. After shaking, 2 mL of molten top agar supplemented with histidine and biotin were added to the 0.7 mL mixture and immediately poured onto a minimal glucose agar plate (volume of base agar was 20 mL). The top agar was allowed 30 minutes to solidify and then the plates were inverted and incubated for 44 hours at 37° C. After incubation the number of revertant colonies on each plate were counted. […] (“n” represents the number of replicates performed for each data point.)
(§5) Maron and Ames (1983) describe the conflicting views with regard to the statisical treatment of data generated from the test.

[3] = system: Salmonella typhimurium TA1538; assay: Ames assay (dark mutagenicity), strain TA1538
Text: as §1, §2, §3, §4, §5

[4] = system: Salmonella tester strains TA97a, TA98, TA100, TA102, TA1537 and TA1538; assay: Ames assay, overall assessment over the tester strains; conditions: strains tested: TA100 and TA1538, ±S9, 5 and 10 μg/plate
Text: as §1, §2, §3
For all experiments, the pre-incubation procedure was used. In this procedure one vial of each tester strain was thawed and 20 μL of this culture was added to 6 mL of Oxoid Nutrient Broth #2. This solution was allowed to shake for 10 hours at 37° C. In the pre-incubation procedure, 0.1 mL of this overnight culture was added to each of the required number of sterile test tubes. To half of the tubes 0.5 mL of a 10% S-9 solution containing Aroclor 1254 induced rat liver extract (Molecular Toxicology Inc., Annapolis, Md.), and MgCl2, KCl, glucose-6-phosphate, NADP, and sodium phosphate buffer (Sigma, St. Louis, Mo.) were added. To the other half of the tubes 0.5 mL of 0.2M sodium phospate buffer, pH 7.4, was used in place of the S-9 mixture (the -S9 samples). Finally 0.1 mL of the test solution containing either 0, 0.1, 0.5, 1, 5, 10, 50, 100, 250, or 500 μg/mL of the test compound was added. […] After incubation the number of revertant colonies on each plate were counted. […]

[5] = system: Salmonella typhimurium TA102; assay: Ames assay (dark mutagenicity), strain TA102; conditions: TA102 at 500 μg/plate
Text: as §1, §2, §3, §4, §5

[6] = system: Duck Hepatitis B Virus (DHBV); assay: Inactivation of DHBV in platelet concentrate, PCR amplification readout; conditions: 5J/CM^2 UVA
Experimental: This example describes the protocol for inactivation of Duck Hepatitis B Virus (DHBV), a model for Hepatitis B Virus, using compounds of the present invention. DHBV in duck yolk was added to platelet concentrate (PC) to a final concentration of 2×10^7 particles per mL and mixed by gentle rocking for ≧15 min. […] Samples, including controls without added psoralen, were irradiated with 5J/CM^2 UVA, with mixing at 1 J/cm^2 increments. After irradiation, leukocytes and platelets were separated from virus by centrifugation. […] Samples were extracted with phenol-chloroform and chloroform, followed by ethanol precipitation. […] PCR amplicons were generated using primers pairs DCD03/DCD05 (127 bp), DCD03/DCD06 (327 bp) and DCD03/DCD07 (1072 bp). PCR was performed in a standard PCR buffer containing 0.2 mM each deoxyribonucleoside 5′-triphosphates (dATP, dGTP, dCTP, and dTTP), […], and 0.5 units Taq polymerase per […]. 30 cycles of amplification were performed with the following thermal profile: 95° C. 30 sec, 60° C. 30 sec, 72° C. 1 min. The amplification was followed by a 7 min incubation at 72° C. to yield full length products. […] was added at an amount of […] in order to detect and quantify the resulting products. Products were separated by electrophoresis on denaturing polyacrylamide slab gels and counted. The absence of signal in a given reaction was taken to indicate effective inactivation of DHBV.

Cc1oc2c(CN)c3oc(=O)cc(C)c3cc2c1C [8-aminomethyl-4,4′, 5′-trimethylpsoralen, reference compound]
genotoxic (toxic) concentration [1]: 10 µg/mL

Cc1oc2c(C)c3oc(=O)cc(C)c3cc2c1CNCCN [Compound 1, 4′-(4-amino-2-aza)butyl-4,5′,8-trimethylpsoralen]
R17 inactivation efficiency compared with 8-MOP (R17; 32 μM, 1 minute irradiation): much higher R17 inactivation efficiency than does 8-MOP | LOG TITER (R17; experiment 1, 32 μM cmpd, 1′ uva, phage only titer 7.7): <1 log | LOG TITER (R17; experiment 1, 32 μM cmpd, 10′ uva, phage only titer 7.7): <1 log | LOG TITER (R17; experiment 1, compound only (32 μM), no uva, phage only titer 7.7): 7.6 log | LOG TITER (R17; experiment 2, 3.2 μM cmpd, 1′ uva, phage only titer 7.8): 6.9 log | LOG TITER (R17; experiment 2, 3.2 μM cmpd, 10′ uva, phage only titer 7.8): 6.1 log | LOG TITER (R17; experiment 2, compound only (3.2 μM), no uva, phage only titer 7.8): 7.7 log | LOG TITER (R17; experiment 3, 4 μM cmpd, 1′ uva, phage only titer 7.3): 6.3 log | LOG TITER (R17; experiment 3, 8 μM cmpd, 1′ uva, phage only titer 7.3): 5.6 log | LOG TITER (R17; experiment 3, 16 μM cmpd, 1′ uva, phage only titer 7.3): 3.9 log | LOG TITER (R17; experiment 3, compound only (16 μM), no uva, phage only titer 7.3): 7.3 log | revertants per plate ([2]; TA100 +S9, 5 μg/plate): −24 | revertants per plate ([2]; TA100 +S9, 10 μg/plate): −22 | mutation in the TA100 strain ([2]; TA100, with and without S9): displayed mutation in the TA100 strain, but only in the absence of S9 | mutagenic response detected ([3]; TA1538 at 5 μg/plate in the presence of S9): weak frameshift mutagen | revertants per plate ([3]; TA1538 −S9, 5 μg/plate): 10 | revertants per plate ([3]; TA1538 −S9, 10 μg/plate): 12

Cc1oc2c(C)c3oc(=O)cc(C)c3cc2c1COCCCN [Compound 4, 4′-(5-amino-2-oxa)pentyl-4,5′,8-trimethylpsoralen]
revertants per plate ([2]; TA100 +S9, 5 μg/plate): −10 | revertants per plate ([2]; TA100 +S9, 10 μg/plate): −3 | revertants per plate ([3]; TA1538 −S9, 5 μg/plate): −2 | revertants per plate ([3]; TA1538 −S9, 10 μg/plate): −2 | mutagenicity (overall) [4]: no mutagenicity

COc1c2occc2cc2ccc(=O)oc12 [Compound 8-MOP, 8-Methoxypsoralen]
mutagenic response detected [5]: weak base-substitution mutagen

Cc1oc2c(C)c3oc(=O)cc(C)c3cc2c1COCCN [Compound S-59]
PCR amplification of the 1072 bp DHBV amplicon ([6]; all concentrations (35, 70, and 100 mM)): complete inhibition of PCR | inhibition of PCR of the smaller DHBV amplicons (127 bp, 327 bp) compared with AMT ([6]; same concentrations): inhibited PCR of the smaller amplicons better than did AMT
